Assay results as given in patent publication US12157740B2, “Triazolopyridines and triazolopyrimidines that lower stress-induced p-tau” (NantNeuro, LLC, priority 2015, dated 2024).

Assays:
CRFR2 = biological target: T1, CRFR2 (Homo sapiens, UniProt Q13324); test: binding to CRFR2 (Ki)
T1 sequence (Q13324 1-411): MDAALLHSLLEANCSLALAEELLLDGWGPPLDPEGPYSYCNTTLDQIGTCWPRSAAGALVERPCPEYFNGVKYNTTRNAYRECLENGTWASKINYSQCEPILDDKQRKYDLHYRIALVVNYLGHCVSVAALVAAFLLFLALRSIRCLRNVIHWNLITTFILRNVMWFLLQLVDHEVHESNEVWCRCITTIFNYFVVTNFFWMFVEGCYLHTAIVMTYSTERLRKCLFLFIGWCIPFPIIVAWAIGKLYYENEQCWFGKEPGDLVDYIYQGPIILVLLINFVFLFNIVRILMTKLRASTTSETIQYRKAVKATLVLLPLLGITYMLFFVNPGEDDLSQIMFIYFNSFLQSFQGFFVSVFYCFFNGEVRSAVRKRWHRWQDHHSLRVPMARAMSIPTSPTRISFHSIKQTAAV

p-tau = test: cortisol-induced p-tau increase in vitro (screen of clinical library of CRF-1 inhibitors); assay type: cell-based
From the text: To identify therapeutic candidates, a clinical library of CRF-1 inhibitors to was screened to determine their effects on cortisol-induced p-tau increases. […] J03 was shown specifically to inhibit stress-induced p-tau increases by cortisol in vitro.

[1] = test system: tau and phospho-tau in SHSY-5Y cells; test: CRF-induced tau, p-tau and sAPPα changes in SHSY-5Y cells; assay type: cell-based; settings: for p-tau/tau ratio: FIG. 32C
[2] = test system: tau and p-tau in SH-Sy5Y cells; test: screens for tau and p-tau levels in SH-Sy5Y cells (no CRF stated); assay type: cell-based; settings: screen of FIG. 28B
Method: As described below, in vitro studies were performed using SHSY-5Y cells. These cells are a useful neurological model that differentiate into cells with morphological and biochemical characteristics of mature neurons including mature isoforms of tau. […]

[3] = in vivo pharmacokinetics, plasma and brain levels; set-up: species or system mouse
J20 mice [4] = test: J03 pilot study #1 in J20 mice (SQ, 12 days); assay type: in vivo, mouse
Method: (§1) Animal experiments were performed using J20 mice. The J20 mouse is a model of for Alzheimer's disease. This model overexpresses human APP with two mutations linked to familial Alzheimer's disease (the APP KM670/671NL (Swedish) and 5APP V717F (Indiana) mutations).
In pilot study #1, J20 mice housed singly were treated by SQ injection of J03 in PEG/b-MCD at 10 mkd for 12 days. NOR analysis of object memory (N=5/group) was performed. The results are illustrated in FIGS. 10D-10I. […] There was no difference in Aβ1-40 (FIG. 10E), but a decrease in Aβ1-42 (FIG. 10F).

J20 mice [5] = test: J03 pilot study #2 in J20 mice (oral, longer duration); assay type: in vivo, mouse
Method: as §1
Based on these promising results, the study was repeated (pilot study #2) with oral delivery and a longer duration.

J20 mice [6] = test: J17 pilot study in J20 mice (oral, 28 days); assay type: in vivo, mouse; settings: oral 28 days
Method: as §1
In a J17 pilot study (#1 pilot study) male and female J20 mice were housed singly and treated with J17 at 10 rnkd by oral delivery for 28 days.

tau and p-tau = test: effect of J03 and J19 on tau and p-tau (FIG. 39E-39F, system not given); settings: FIG. 39E
From the text: JI9 decreased tau and both J03 and JI9 decreased p-tau (FIG. 39E). Therefore, while the p-tau/tau ratio looks unchanged for J19 FIG. 39F. This is due to the tau decrease and not due to a lack of effect.

[7] = CRF-1 at 100 nM for 3 days, compound at 20 nM, FIG. 29A
[8] = oral delivery, longer duration, J20 mice

With `CCC(COC)n1nnc2c(Nc3ccc(OC)cc3C)nc(C)cc21` (stereo not drawn) [J03, N-(4-Methoxy-2-methylphenyl)-1-[1-(methoxymethyl)propyl]-6-methyl-1H-1,2,3-triazolo[4,5-c]pyridine-4-amine] the Ki (CRFR2) was greater than 10 µM, the “stress-induced p-tau increases by cortisol” value (p-tau) was “inhibit” and the p-tau [1, 7] was “decreased”. The total tau [1, 7] was “decreased”, the “tau after exposure to CRF” value ([1]; FIG. 21D) was “decreased” and the “p-tau after exposure to CRF” value ([1]; FIG. 21E) was “decreased”. The “tau increases induced by CRF” value ([1]; SHSY-5Y cells cultured without serum, CRF at increasing concentrations, FIG. 10A) was “reduces”, the “phospho-tau (p-tau) increases induced by CRF” value ([1]; SHSY-5Y cells cultured without serum, CRF at increasing concentrations, FIG. 10B) was “reduces” and the “sAPPα increase, significance” value ([1]; at 100 nM CRF, FIG. 32D) was “reached significance”. The p-tau/tau ratio ([1]; at 50 and 100 nM CRF) was “highly significantly decreased”, the tau ([1]; in the absence of CRF and in the presence of 100 nM CRF, FIG. 32A) was “significantly decreased” and the p-tau/tau ratio ([1]; in the absence of CRF) was “decreased”. For the same compound, the p-tau ([1]; in the presence and absence of CRF, FIG. 32B) was “significantly reduced”, the “sAPPα after exposure to CRF” value ([1]; versus control, FIG. 21C) was “lower” and the sAPPα ([1]; with and without CRF, FIG. 32D) was “trend for sAPPα to be higher”. The p-tau [2] was “neither J14 nor J03 decreased”, the total tau [2] was “neither J14 nor J03 decreased” and the brain levels ([3]; 10 mk subcutaneous (SQ) single injection, J20 mice, FIG. 10C) was “low”. For the same compound, the “brain levels at the peak after oral delivery, compared with SQ” value ([3]; oral delivery by feeding (not gavage) at 10 mg/kg) was “slightly higher”, the “NOR analysis of object memory (behavior)” value (J20 mice [4]; J20 mice housed singly, SQ 10 mkd in PEG/b-MCD for 12 days, FIG. 10D) was “slight improvement” and the P-tau (J20 mice [4]; SQ 10 mkd, 12 days) was “significantly lower”. For the same compound, the Aβ1-40 (J20 mice [4]; SQ 10 mkd, 12 days, FIG. 10E) was “no difference”, the Aβ1-42 (J20 mice [4]; SQ 10 mkd, 12 days, FIG. 10F) was “decrease” and the Aβ1-40/1-42 ratio (J20 mice [4]; SQ 10 mkd, 12 days, FIG. 10G) was “significantly increased”. The SAPP (J20 mice [4]; SQ 10 mkd, 12 days, FIG. 10H) was “very slightly increased”, the sAPP/Aβ1-42 ratio (J20 mice [4]; SQ 10 mkd, 12 days, FIG. 10I) was “very slightly increased” and the “ratio (p-tau and tau)” value (J20 mice [4]; SQ 10 mkd, 12 days, great individual variation) was “slightly higher”. The total tau (J20 mice [4]; SQ 10 mkd, 12 days, largely due to one mouse, FIG. 11A) was “decreased”, the “novel location assay / preference” value (J20 mice [5]; [8]) was “performed well” and the novel object assay (J20 mice [5]; [8]) was “performed well”. The sAPPα (J20 mice [5]; oral, FIG. 13A) was “increased slightly”, the sAPPβ (J20 mice [5]; oral, FIG. 13B) was “unchanged” and the sAPPα/sAPPβ ratio (J20 mice [5]; oral, FIG. 13C) was “slightly increased”. For the same compound, the Aβ1-40 (J20 mice [5]; oral, FIG. 14A) was “unchanged”, the Aβ1-42 (J20 mice [5]; oral, FIG. 14B) was “unchanged” and the Aβ1-40/Aβ1-42 ratio (J20 mice [5]; oral, FIG. 14C) was “unchanged”. The p-tau (J20 mice [5]; oral, decrease reached statistical significance, FIG. 16) was “decreased”, the activity (J20 mice [6]; male and female J20 mice housed singly, not significant, FIG. 24A) was “lowered” and the “novel object preference, overall” value (J20 mice [6]; all mice, FIG. 24B) was “increased”. For the same compound, the sAPPα (J20 mice [6]; both genders, FIG. 25A) was “increase”, the “ratio sAPPα/sAPPβ” value (J20 mice [6]; males, FIG. 25C) was “slight increase” and the p-tau (tau and p-tau) was “decreased”.
